# Data reported in patent US20240190821A1, “SULFONAMIDE SUBSTITUTED N-(1H-INDOL-7-YL)BENZENESULFONAMIDES AND USES THEREOF” (Triana Biomedicines, Inc., priority 2021, published 2024).
# Like-named read-outs stand apart in the source and are kept apart here.
# What was measured:
# DCAF15 = DCAF15 (Homo sapiens, UniProt Q66K64); assay: Binary interaction between compounds and DCAF15, HTRF competition assay; format: binding
# Method: DCAF15 interactions with test compounds were monitored using HTRF competition assays (Cisbio, Bedford, MA). […] These two solutions were mixed and incubated for 15 min at room temperature. 9.8 ul of the tracer solution and 10 ul of the DCAF15/mAb Anti-6His-Eu cryptate Gold mixture were added sequentially to each well in the assay plate. Reaction mixtures with no DCAF15 added were included as […] controls. […] Binding was estimated based on ratiometric analysis and titration curves were generated in GraphPad Prism (7.00, GraphPad, La Jolla, CA).
# [1] = molecular target: T1, DCAF15-RBM39 ternary complex (Homo sapiens, UniProt Q14498+Q66K64); assay: Compound-induced DCAF15-RBM39 ternary complex formation, AlphaLISA; format: biochemical
# T1 construct: (RRM2)
# Method: Compound-induced DCAF15-RBM39 ternary complex formation was monitored using AlphaLISA® assays (Perkin Elmer, Waltham, MA). […] 9.8 ul of this protein mixture was then mixed with the compounds in the assay plate and incubated for one hour at room temperature. Reaction mixtures with no compounds added were included as negative controls, while a His-tagged and biotinylated GST protein was included to track general assay performance. […] The beads were then added to the assay plate sequentially with incubation at room temperature for 1-2 hours after each addition.
# [2] = HTRF competition with Alexa Fluor 647 tracer, His-tagged DCAF15 complex, read-out: DCAF15 IC50
# [3] = AlphaLISA, His-tagged DCAF15 complex and biotin-carrying RBM39, read-out: Ternary-RBM39 (RRM2) EC50
# DCAF15, sequence (Q66K64 whole entry): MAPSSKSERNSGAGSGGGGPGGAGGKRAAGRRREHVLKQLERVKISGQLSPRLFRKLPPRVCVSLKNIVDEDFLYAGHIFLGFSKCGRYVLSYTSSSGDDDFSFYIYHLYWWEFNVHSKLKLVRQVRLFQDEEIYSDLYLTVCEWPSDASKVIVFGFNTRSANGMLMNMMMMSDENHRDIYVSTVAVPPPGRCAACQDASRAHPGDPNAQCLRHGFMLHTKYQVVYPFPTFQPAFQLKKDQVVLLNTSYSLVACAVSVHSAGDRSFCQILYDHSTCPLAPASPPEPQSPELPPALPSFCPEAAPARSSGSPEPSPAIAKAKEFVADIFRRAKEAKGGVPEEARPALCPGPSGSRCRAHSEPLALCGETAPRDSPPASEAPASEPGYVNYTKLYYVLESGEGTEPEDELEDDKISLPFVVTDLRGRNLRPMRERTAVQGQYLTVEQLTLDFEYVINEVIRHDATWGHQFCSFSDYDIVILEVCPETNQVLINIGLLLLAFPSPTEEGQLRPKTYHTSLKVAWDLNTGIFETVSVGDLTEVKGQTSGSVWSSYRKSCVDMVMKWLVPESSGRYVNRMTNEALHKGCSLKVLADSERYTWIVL
# DCAF15, sequence (Q16531 whole entry partner): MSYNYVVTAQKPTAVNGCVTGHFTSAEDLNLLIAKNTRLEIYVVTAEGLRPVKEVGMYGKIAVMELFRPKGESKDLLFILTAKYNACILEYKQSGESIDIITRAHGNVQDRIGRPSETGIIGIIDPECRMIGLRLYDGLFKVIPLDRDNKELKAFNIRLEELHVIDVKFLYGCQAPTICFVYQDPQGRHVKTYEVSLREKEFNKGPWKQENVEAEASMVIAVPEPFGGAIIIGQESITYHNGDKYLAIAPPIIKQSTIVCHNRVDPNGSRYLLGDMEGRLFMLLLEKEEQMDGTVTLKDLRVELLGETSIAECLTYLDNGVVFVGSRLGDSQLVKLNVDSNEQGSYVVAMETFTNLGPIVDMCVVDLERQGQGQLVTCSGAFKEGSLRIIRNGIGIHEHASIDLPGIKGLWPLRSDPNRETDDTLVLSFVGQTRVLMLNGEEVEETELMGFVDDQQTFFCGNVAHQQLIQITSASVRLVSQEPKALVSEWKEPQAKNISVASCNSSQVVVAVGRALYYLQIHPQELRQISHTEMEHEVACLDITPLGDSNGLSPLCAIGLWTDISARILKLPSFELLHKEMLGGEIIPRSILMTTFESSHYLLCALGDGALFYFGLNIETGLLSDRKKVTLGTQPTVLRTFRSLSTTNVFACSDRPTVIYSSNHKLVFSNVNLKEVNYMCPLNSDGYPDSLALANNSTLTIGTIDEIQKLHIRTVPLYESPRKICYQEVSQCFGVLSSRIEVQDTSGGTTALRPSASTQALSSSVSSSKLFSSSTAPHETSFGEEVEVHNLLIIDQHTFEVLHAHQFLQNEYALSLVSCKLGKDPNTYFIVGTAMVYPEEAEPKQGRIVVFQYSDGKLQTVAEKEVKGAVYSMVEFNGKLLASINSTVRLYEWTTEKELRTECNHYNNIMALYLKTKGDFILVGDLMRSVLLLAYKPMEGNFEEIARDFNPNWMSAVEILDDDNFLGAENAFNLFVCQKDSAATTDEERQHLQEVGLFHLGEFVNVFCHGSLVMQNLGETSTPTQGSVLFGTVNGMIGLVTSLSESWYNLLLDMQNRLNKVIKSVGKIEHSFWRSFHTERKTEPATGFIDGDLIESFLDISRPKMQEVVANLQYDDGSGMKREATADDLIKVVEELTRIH
# T1 sequence (Q66K64 whole entry): as the sequence (Q66K64 whole entry) above
# T1 sequence (Q14498 250-328 limits assumed): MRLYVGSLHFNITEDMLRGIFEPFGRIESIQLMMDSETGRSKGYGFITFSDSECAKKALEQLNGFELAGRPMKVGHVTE
# T1 sequence (Q16531 whole entry partner): as the sequence (Q16531 whole entry partner) above
Compound,IC50 (DCAF15; [2]),"EC50 [1, 3]",IC50 (DCAF15),EC50 [1]
"O=S(=O)(Nc1ccc(Cl)c2c(Cl)c[nH]c12)c1cccc(Br)c1 [Compound 76, 3-bromo-N-(3,4-dichloro-1H-indol-7-yl)benzenesulfonamide]",< 20 µM,< 5 µM,–,–
"COCCOCCCNS(=O)(=O)c1ccc(S(=O)(=O)Nc2ccc(Cl)c3c(Cl)c[nH]c23)cc1 [Compound 7, N^1-(3,4-dichloro-1H-indol-7-yl)-N^4-(3-(2-methoxyethoxy)propyl)benzene-1,4-disulfonamide]",< 20 µM,< 5 µM,–,–
"Cc1ccc(NS(=O)(=O)c2ccc(S(=O)(=O)N3CC4CNCC4C3)cc2)c2[nH]cc(C#N)c12 (stereo not drawn) [Compound 92, N-(3-cyano-4-methyl-1H-indol-7-yl)-4-((hexahydropyrrolo[3,4-c]pyrrol-2(1H)-yl)sulfonyl)benzenesulfonamide]",< 20 µM,< 1 µM,–,–
"Cc1ccc(NS(=O)(=O)c2ccc(S(=O)(=O)N3CCN4CCCC4C3)cc2)c2[nH]cc(C#N)c12 (stereo not drawn) [Compound 91, N-(3-cyano-4-methyl-1H-indol-7-yl)-4-((hexahydropyrrolo[1,2-a]pyrazin-2(1H)-yl)sulfonyl)benzenesulfonamide]",< 100 µM,< 1 µM,–,–
"COc1cccc(Oc2ccc(CNS(=O)(=O)c3ccc(S(=O)(=O)Nc4ccc(Cl)c5c(Cl)c[nH]c45)cc3)cn2)c1 [Compound 17, N^1-(3,4-dichloro-1H-indol-7-yl)-N^4-((6-(3-methoxyphenoxy)pyridin-3-yl)methyl)benzene-1,4-disulfonamide]",< 20 µM,< 20 µM,–,–
"O=S(=O)(Nc1ccc(Cl)c2c(Cl)c[nH]c12)c1ccc(S(=O)(=O)N2CCC(Oc3cccnc3)CC2)cc1 [Compound 39, N-(3,4-dichloro-1H-indol-7-yl)-4-((4-(pyridin-3-yloxy)piperidin-1-yl)sulfonyl)benzene sulfonamide]",< 20 µM,< 5 µM,–,–
"Cc1ccnc(C(NS(=O)(=O)c2ccc(S(=O)(=O)Nc3ccc(Cl)c4c(Cl)c[nH]c34)cc2)C2CC2)c1 (stereo not drawn) [Compound 18, N^1-(cyclopropyl(4-methylpyridin-2-yl)methyl)-N^4-(3,4-dichloro-1H-indol-7-yl)benzene-1,4-disulfonamide]",< 20 µM,< 5 µM,–,–
"O=S(=O)(Nc1ccc(Cl)c2cc[nH]c12)c1ccc(S(=O)(=O)N2CCNCC2)cc1 [Compound 87, N-(4-chloro-1H-indol-7-yl)-4-(piperazin-1-ylsulfonyl)benzenesulfonamide]",< 20 µM,< 5 µM,–,–
"CC(C)(C)OC(=O)NC1(CNS(=O)(=O)c2ccc(S(=O)(=O)Nc3ccc(Cl)c4c(Cl)c[nH]c34)cc2)CC1 [Compound 9, tert-butyl (1-(((4-(N-(3,4-dichloro-1H-indol-7-yl)sulfamoyl)phenyl)sulfonamido)methyl)cyclopropyl) carbamate]",< 20 µM,< 20 µM,–,–
"CN(C)C(=O)c1ccc(CCNS(=O)(=O)c2ccc(S(=O)(=O)Nc3ccc(Cl)c4c(Cl)c[nH]c34)cc2)cc1 [Compound 23, 4-(2-((4-(N-(3,4-dichloro-1H-indol-7-yl)sulfamoyl)pheny 1)sulfonamido)ethyl)-N,N-dimethylbenzamide]",< 20 µM,< 5 µM,–,–
"O=S(=O)(Nc1ccc(Cl)c2c(Cl)c[nH]c12)c1ccc(S(=O)(=O)N2CCN(CCOCCc3ccccn3)CC2)cc1 [Compound 51, N-(3,4-dichloro-1H-indol-7-yl)-4-((4-(2-(2-(pyridin-2-yl)ethoxy)ethyl)piperazin-1-yl)sulfonyl)benzenesulfonamide]",–,–,< 20 µM,< 1 µM
"O=S(=O)(Nc1ccc(Cl)c2c(Cl)c[nH]c12)c1ccc(S(=O)(=O)N2CCNCC2)c(F)c1 [Compound 45, N-(3,4-dichloro-1H-indol-7-yl)-3-fluoro-4-(piperazin-1-ylsulfonyl)benzenesulfonamide]",< 5 µM,< 1 µM,–,–
"CCc1nc(CN(C)S(=O)(=O)c2ccc(S(=O)(=O)Nc3ccc(Cl)c4c(Cl)c[nH]c34)cc2)no1 [Compound 20, N^1-(3,4-dichloro-1H-indol-7-yl)-N^4-((5-ethyl-1,2,4-oxadiazol-3-yl)methyl)-N4. methylbenzene-1,4-disulfonamide]",< 5 µM,< 5 µM,–,–
"O=S(=O)(F)c1ccc(S(=O)(=O)Nc2ccc(Cl)c3c(Cl)c[nH]c23)cc1 [Compound 72, 4-(N-(3,4-dichloro-1H-indol-7-yl)sulfamoyl)benzenesulfonyl fluoride]",–,–,< 20 µM,< 1 µM
"CN(C)C(=O)CC(NS(=O)(=O)c1ccc(S(=O)(=O)Nc2ccc(Cl)c3c(Cl)c[nH]c23)cc1)c1ccccc1 (stereo not drawn) [Compound 11, 3-((4-(N-(3,4-dichloro-1H-indol-7-yl)sulfamoyl)phenyl)sulfonamido)-N,N-dimethyl-3-phenylpropanamide]",< 5 µM,< 20 µM,–,–
"O=S(=O)(Nc1ccc(Cl)c2c(Cl)c[nH]c12)c1ccc(C2(N3CCNCC3)CC2)cc1 [Compound 59, N-(3,4-dichloro-1H-indol-7-yl)-4-(1-(piperazin-1-yl)cyclopropyl) benzenesulfonamide]",< 5 µM,< 1 µM,–,–
O=C1CCC(NS(=O)(=O)c2ccc(S(=O)(=O)Nc3ccc(Cl)c4c(Cl)c[nH]c34)c(F)c2)CN1 (stereo not drawn) [compound 105],< 20 µM,< 20 µM,–,–
"Cc1ccc(NS(=O)(=O)c2ccc(S(=O)(=O)N3C[C@H]4C[C@@H](C3)N4)cc2)c2[nH]cc(C#N)c12 [Compound 94, 4-(((1R,5S)-3,6-diazabicyclo[3.1.1]heptan-3-yl)sulfonyl)-N-(3-cyano-4-methyl-1H-indol-7-yl)benzenesulfonamide]",< 20 µM,< 1 µM,–,–
"CCCC1CNCCN1S(=O)(=O)c1ccc(S(=O)(=O)Nc2ccc(Cl)c3c(Cl)c[nH]c23)cc1 (stereo not drawn) [Compound 47, N-(3,4-dichloro-1H-indol-7-yl)-4-((2-propylpiperazin-1-yl)sulfonyl)benzenesulfonamide]",< 5 µM,< 1 µM,–,–

# Further lines, with some results ahead:
IC50 (DCAF15; [2]),"EC50 [1, 3]",Compound,IC50 (DCAF15),EC50 [1]
< 5 µM,< 1 µM,"CN1CC(CCNS(=O)(=O)c2ccc(S(=O)(=O)Nc3ccc(Cl)c4c(Cl)c[nH]c34)cc2)C1 [Compound 22, N^1-(3,4-dichloro-1H-indol-7-y1)-N^4-(2-(1-methylazetidin-3-yl)ethyl)benzene-1,4-disulfonamide]",–,–
< 5 µM,< 1 µM,"O=C1CCC(NS(=O)(=O)c2ccc(S(=O)(=O)Nc3ccc(Cl)c4c(Cl)c[nH]c34)cc2)CN1 (stereo not drawn) [Compound 31, N^1-(3,4-dichloro-1H-indol-7-yl)-N^4-(6-oxopiperidin-3-yl)benzene-1,4-disulfonamide]",–,–
< 5 µM,< 1 µM,"O=S(=O)(NCC1CCN(CCCc2ccccc2)CC1)c1ccc(S(=O)(=O)Nc2ccc(Cl)c3c(Cl)c[nH]c23)cc1 [Compound 10, N^1-(3,4-dichloro-1H-indol-7-yl)-N^4-((1-(3-phenylpropyl)piperidin-4-yl)methyl)benzene-1,4-disulfonamide]",–,–
< 5 µM,< 20 µM,"Cc1cc(CNS(=O)(=O)c2ccc(S(=O)(=O)Nc3ccc(Cl)c4c(Cl)c[nH]c34)cc2)nn1C [Compound 15, N^1-(3,4-dichloro-1H-indol-7-y1)-N^4-((1,5-dimethyl-1H-pyrazol-3-yl)methyl)benzene-1,4-disulfonamide]",–,–
< 5 µM,< 1 µM,"O=S(=O)(Nc1ccc(Cl)c2c(Cl)c[nH]c12)c1ccc(S(=O)(=O)N2CCNCC2)cc1F [Compound 44, N-(3,4-dichloro-1H-indol-7-yl)-2-fluoro-4-(piperazin-1-ylsulfonyl)benzenesulfonamide]",–,–
< 5 µM,< 1 µM,"O=S(=O)(Nc1ccc(Cl)c2c(Cl)c[nH]c12)c1ccc(C(F)(F)C2CCNCC2)cc1 [Compound 70, N-(3,4-dichloro-1H-indol-7-yl)-4-(difluoro(piperidin-4-yl)methyl)benzene sulfonamide]",–,–
< 5 µM,< 1 µM,"O=S(=O)(Nc1ccc(Cl)c2c(Cl)c[nH]c12)c1ccc(S(=O)(=O)N2CCC(O)CC2)cc1 [Compound 38, N-(3,4-dichloro-1H-indol-7-yl)-4-((4-hydroxypiperidin-1-yl)sulfonyl)benzene sulfonamide]",–,–
< 5 µM,< 1 µM,"O=C(CCCNS(=O)(=O)c1ccc(S(=O)(=O)Nc2ccc(Cl)c3c(Cl)c[nH]c23)cc1)N1CCCC1 [Compound 27, N^1-(3,4-dichloro-1H-indol-7-yl)-N^4-(4-oxo-4-(pyrrolidin-1-yl)butyl)benzene-1,4-disulfonamide]",–,–
< 5 µM,< 1 µM,"O=C1NCCCCC1NS(=O)(=O)c1ccc(S(=O)(=O)Nc2ccc(Cl)c3c(Cl)c[nH]c23)cc1 (stereo not drawn) [Compound 33, N^1-(3,4-dichloro-1H-indol-7-yl)-N^4-(2-oxoazepan-3-yl)benzene-1,4-disulfonamide]",–,–
< 5 µM,< 1 µM,"CCCN(C1CCNCC1)S(=O)(=O)c1ccc(S(=O)(=O)Nc2ccc(Cl)c3c(Cl)c[nH]c23)cc1 [Compound 30, N^1-(3,4-dichloro-1H-indol-7-yl)-N^4-(piperidin-4-yl)-N^4-propylbenzene-1,4-disulfonamide]",–,–
< 5 µM,< 1 µM,CCCN(C(=O)CN)c1ccc(S(=O)(=O)Nc2ccc(Cl)c3c(Cl)c[nH]c23)cc1 [compound 131],–,–
